From paper PMC9739877, “Discovery and Mechanistic Investigation of Piperazinone Phenylalanine Derivatives with Terminal Indole or Benzene Ring as Novel HIV-1 Capsid Modulators” (Molecules, 2022) come the findings set out here.

For one series, the system named is HIV-1 (IIIB). Nature of the series: microbe, parasite or virus in culture. The series is classed as cell-based. To be noted: Human immunodeficiency virus 1, MT4, 50% protection against HIV-induced cytotoxicity, MT-4 cells, MTT. The procedure:
(§1) II. In vitro anti-HIV Assay in MT-4 Cells
(§2) Evaluation of the antiviral activity of the compounds against HIV in MT-4 cells was performed using the MTT assay as described below. Stock solutions (10 × final concentration) of test compounds were added in 25 µL volumes to two series of triplicate wells to allow simultaneous evaluation of their effects on mock- and HIV-infected cells at the beginning of each experiment. Serial 5-fold dilutions of test compounds were made directly in flat-bottomed 96-well microtiter trays using a Biomek 3000 robot (Beckman Instruments, Fullerton, CA). Untreated HIV- and mock-infected cell samples were included as controls. HIV stock (50 µL) at 100-300 CCID50 (50 % cell culture infectious doses) or culture medium was added to either the infected or mock-infected wells of the microtiter tray. Mock-infected cells were used to evaluate the effects of the test compound on uninfected cells to assess the test compounds' cytotoxicity. Exponentially growing MT-4 cells were centrifuged for 5 minutes at 220 g, and the supernatant was discarded. […]
(§3) cells/mL, and 50 µL volumes were transferred to the microtiter tray wells. Five days after infection, the viability of mock-and HIV-infected cells was examined spectrophotometrically using the MTT assay. The MTT assay is based on the reduction of yellow colored 3-(4,5-dimethylthiazol-2-yl)-2,5-diphenyltetrazolium bromide (MTT) (Acros Organics) by mitochondrial dehydrogenase activity in metabolically active cells to a blue-purple formazan that can be measured spectrophotometrically. The absorbances were read in an eight-channel computer-controlled photometer (Infinite M1000, Tecan), at two wavelengths (540 and 690 nm). All data were calculated using the median absorbance value of three wells. […]
(§4) was defined as the concentration of the test compound that reduced the absorbance (OD540) of the mock-infected control sample by 50%. The concentration achieving 50% protection against the cytopathic effect of the virus in infected cells was defined as the […]

A further series concerns HIV-2 (ROD). Nature of the series: Anti-HIV-2 (ROD) activity in MT-4 cells, MTT assay. The series is classed as cell-based. Particulars: Human immunodeficiency virus 2, MT4, 50% protection against HIV-induced cytotoxicity. The procedure:
as §1, §2, §3, §4

Series [1] in a line: Cytotoxicity in mock-infected MT-4 cells, MTT assay. In kind it is cell-based. Particulars: human, 50% reduction of viability of mock-infected MT-4 cells. The procedure:
(§5) II. In vitro anti-HIV Assay in MT-4 Cells […]
(§6) performed using the MTT assay as described below. Stock solutions (10 × final concentration) of test compounds were added in 25 µL volumes to two series of […]
(§7) infected cells at the beginning of each experiment. Serial 5-fold dilutions of test […]
(§8) Biomek 3000 robot (Beckman Instruments, Fullerton, CA). Untreated HIV- and mock-infected cell samples were included as controls. HIV stock (50 µL) at 100-300 CCID50 […]
(§9) or mock-infected wells of the microtiter tray. Mock-infected cells were used to evaluate […]
(§10) cytotoxicity. Exponentially growing MT-4 cells were centrifuged for 5 minutes at 220 g, and the supernatant was discarded. […]
(§11) cells/mL, and 50 µL volumes were transferred to the microtiter tray wells. Five days […]
(§12) spectrophotometrically using the MTT assay. The MTT assay is based on the reduction […]
(§13) M1000, Tecan), at two wavelengths (540 and 690 nm). All data were calculated using the median absorbance value of three wells.
(§14) (OD540) of the mock-infected control sample by 50%. The concentration achieving 50%

For series [2] the following is noted: human, microsomes.
For the next series, the system named is MT-4 cells. Nature of the series: Cytotoxicity in mock-infected MT-4 cells, MTT assay. The series is classed as cell-based. To be noted: 50% reduction of viability of mock-infected MT-4 cells. The procedure:
as §5, §6, §7, §8, §9, §10, §11, §12, §13, §14

The next series addresses T1, HIV-1 CA monomer (Human immunodeficiency virus type 1 group M subtype B, UniProt P12493).
T1 construct: a vector containing C-terminally His-tagged HIV-1NL4-3CA; His6 (CA-H6) (C); made in house; host or cells: E. coli BL21-Codon Plus (DE3)-RIL
Nature of the series: biochemical. In kind it is binding. Particulars: SPR.

In another series the target is HIV-1 CA hexamer (Human immunodeficiency virus type 1 group M subtype B, UniProt P12493, A146C/E177C/M317A/W316A). Nature of the series: SPR binding to disulfide-stabilized hexameric HIV-1 CA.
The nature of series [3]: in vitro. To be noted: human, microsomes.
The nature of series [4]: in vitro. Particulars: both, human, plasma.

As for `COc1ccc(N(C)C(=O)[C@H](Cc2ccccc2)NC(=O)CN2CCN(C(=O)c3ccc(NS(C)(=O)=O)cc3)CC2=O)cc1` [7h, (S)-N-(4-methoxyphenyl)-N-methyl-2-(2-(4-(4-(methylsulfonamido)benzoyl)-2-oxopiperazin-1-yl)acetamido)-3-phenylpropanamide], the EC50 with HIV-1 (IIIB) is 192 ± 3.17 µM; with HIV-2 (ROD), above 201 µM. The compound further yielded a CC50 at 5 days in series [1] above 201 µM.

As to `COc1ccc(N(C)C(=O)[C@H](Cc2ccccc2)NC(=O)CN2CCN(C(=O)c3ccc(NC(=O)C(F)(F)F)cc3)CC2=O)cc1` [7j, (S)-N-(4-methoxyphenyl)-N-methyl-2-(2-(2-oxo-4-(4-(2,2,2-trifluoroacetamido)benzoyl)piperazin-1-yl)acetamido)-3-phenylpropanamide], the EC50 with HIV-1 (IIIB) came to 158 ± 6.77 µM; in the series on HIV-2 (ROD), 15 ± 4.83 µM. Also, the CC50 at 5 days in series [1] is above 195 µM.

Turning to `O=C(O)Cc1ccccc1Nc1c(Cl)cccc1Cl` [Diclofenac, diclofenac], in series [2], the “CLint(liver)” value is 334.8 mL/min/kg, the “CLint(mic)” value was found to be 372.0 µL/min/mg and the T1/2 was found to be 3.7 min.

As for `COc1ccc(N(C)C(=O)[C@H](Cc2cc(F)cc(F)c2)NC(=O)CN2CCN(C(=O)Cc3c[nH]c4ccc(F)cc34)CC2=O)cc1` [F2-7f, (S)-3-(3,5-difluorophenyl)-2-(2-(4-(2-(5-fluoro-1H-indol-3-yl)acetyl)-2-oxopiperazin-1-yl)acetamido)-N-(4-methoxyphenyl)-N-methylpropanamide], in the series with HIV-1 (IIIB), the EC50 turned out to be 5.89 ± 2.03 µM. The EC50 with HIV-2 (ROD) turned out to be 5.07 ± 0.63 µM. Besides, it took 16.4 ± 3.38 µM to reach half-maximal cytotoxicity in the series with MT-4 cells (CC50). For the same compound, the Kd on HIV-1 CA monomer came out at 16.1 ± 1.32 µM. This compound also yielded a Kd at HIV-1 CA hexamer of 7.2 ± 1.1 µM. Also, the “koff times higher than that of PF74” value on HIV-1 CA hexamer (CA hexamers) is recorded as “approximately 8.5 times”. Besides, the “Ratio KD Monomer/KD Hexamer” value at HIV-1 CA hexamer (SPR) was 2.230. For the same compound, the “koff Hexamer” value on HIV-1 CA hexamer (off-rate measured for HIV-1 CA hexamer) was 0.151 ± 0.028 s⁻¹. In addition, in series [2] (1 h, 1 μM), the “Remaining (NCF = 60 min)” value was 103.5% and the “Remaining (T = 60 min)” value was determined as 0.0%. In “in vitro [3]”, the CLint scaled at 1 μM came out at 2480 mL/min/kg, the half-life at 1 μM was found to be 0.5 min and the microsomal CLint at 1 μM was 2760 µL/min/mg. Moreover, in “in vitro [4]”, the half-life at 2 μM was above 289 min; the fraction remaining at 0 h, 2 μM turned out to be 100%; the share remaining at 10 min, 2 μM is 98%; the amount remaining at 0.5 h, 2 μM worked out at 97.8%. Further, in the series “in vitro [4]”, the fraction remaining at 1 h, 2 μM is 90.9% and the amount remaining at 2 h, 2 μM was 86.9%.

As to `COc1ccc(N(C)C(=O)[C@H](Cc2cc(F)cc(F)c2)NC(=O)CN2CCN(C(=O)c3ccc(NS(C)(=O)=O)cc3)CC2=O)cc1` [F2-7h, (S)-3-(3,5-difluorophenyl)-N-(4-methoxyphenyl)-N-methyl-2-(2-(4-(4-(methylsulfonamido)benzoyl)-2-oxopiperazin-1-yl)acetamido)propenamide], the EC50 came out at 161 ± 15.4 µM in the series with HIV-1 (IIIB) and 183 ± 2.77 µM in the series with HIV-2 (ROD). Also, the CC50 at 5 days in [1] was above 190 µM.
